In PMC8224775, “Five Tetramic Acid Derivatives Isolated from the Iranian Fungus Colpoma quercinum CCTU A372” (Biomolecules, 2021):
Where two headings read alike, the source gives them in different places.

System: mouse fibroblast L-929
Assay: 5-day MTT cytotoxicity assay
Assay type: cell-based
Conditions: L-929, 5-day MTT assay
Protocol: Cytotoxicity of compounds 1‒5 was initially determined against two cancer cell lines (mouse fibroblasts L-929 and human endocervical adenocarcinoma KB-3.1) by using a 5-day MTT assay according to an established procedure.
In 96-well flat-bottom microtiter plates, cell lines with serial dilution of the test compounds (final range: 37 to 0.6 × 10^−3 µg/mL) were incubated for five days. After five days, the cells were dyed using 3-(4,5-dimethyl-2-thiazolyl)-2,5-diphenyl-2H-tetrazolium bromide (MTT), which is only converted to its purple formazan derivative by living cells. The half-maximum inhibitory concentration (IC50 in µM) was calculated via the colorimetric method in a microplate reader using absorption at 595 nm. In addition, when an inhibition with an IC50 < 50 µM was observed, other cell lines were subjected to the test compounds to evaluate their further cytotoxicity: PC-3 (human prostate adenocarcinoma), SK-OV-3 (human ovary adenocarcinoma), MCF-7 (human breast adenocarcinoma), A-431 (human squamous carcinoma), and A549 (human lung carcinoma). A detailed procedure, including the colorimetric method to determine the cell viability, can be found in the SI.
Protocol: Cytotoxicity Assay
The assay was co nducted in 9 6-well flat -botto m microtiter plates using the parameters summarised in T able S2 and as described in [S2]. Cell l ines L-929 and KB-3.1 were incubated at 37 °C under 10 % CO2 in Gibco™ DMEM medium (T her mo Fisher Scientific, Waltham, M A, USA) supplemented with 10 % FBS. A microtiter plate was filled wit h 120 μ L o f this suspensio n (50,000/mL) in each well. Seperatel y, a nother microti ter plate wa s filled wit h 100 μL of gro wth medium in each well. Then, 50 μ L of the test compound solutions (1 mg/mL) were given to wells of the first column in two replicates (one compound per row). Cells without additives and MeOH were used as nega tive controls. Starting from the first column, 50 μ L of the solutions were gradually transferred to the next column, the contents thoroughly mixed, and 50 μL transferred to the following column. This created a serial dilution of the test compounds ranging from 333 μ g/mL to 1.9×10-3 μg/ mL. T he re mai ni ng 50 μ L after column twelve were discarded. From this microtiter plate, 60 μ L of the solutions fro m 111 μ g/mL to 1.9×10-3 μg/mL we r e give n to t he firs t p late co ntai ni ng 1 2 0 μ L of the cell suspensions (i.e. the highest co ncentration 333 μ g/ mL wa s no t used). T his resul ted in fi nal compo und concentratio ns rangi ng fro m 37 μ g/mL to 0.6×10-3 μg/ mL. After 5 days o f incubatio n under the aforementioned incubatio n conditions, the half maximu m inhibitory co ncentrations (IC50) were deter mined using a colorimetric tetrazolium d ye MT T assa y [S3]. For this, 20 μ L of a 5 mg/mL solution of 3-(4,5-dimethyl-2 -thiazolyl) -2,5-diphenyl-2H-tetrazolium br omide (MTT) were added to each well and incubated for two hours at 37 °C. T hen, the microtiter plate was ce ntrifuged (3,000 rpm, 5 min) and the supernatant removed by holding the plate upside-down and gentle shaking. Afterwards, the wells were washed using 100 μ L of phosphate buffered saline (PBS). T he plate was a gain ce ntrifuged a nd the supernata nt re mo ved as described before.
T hen, 1 0 0 μ L of an isopropanol:HCl solution (1L isopropanol+4 mL HCl 37 % w/v) were added to the wells. After incubating for 10 min at ambient temperature, the absorption of the wells at 595 nm was measured with an Infinite® 200 Pro microplate reader (TECAN, Männedorf, Schweiz). The absorption values of the cells without additives were averaged and set to 100 % cell viability. Then, the means of absorption of the two compound replicates were set in relation to the blank media. T hese percentage values were plotted against the concentratio n range (37 μ g/mL to 0.6×10−3 μg/ mL). T he IC50 value was r ead fro m the plot (in μ g/ mL) a nd the uni ts conversed […]
to μM. […]

## CC(=O)OC(C(=O)O)C(C)C1C(C)=CC2CC(C)CCC2C1(C)C(O)=C1C(=O)C(C)N(C)C1=O (centres unmarked) [compound 1, Colposetin A]
  IC50: not active

## CCC(C(=O)O)C1C(C)=CC2CC(C)CCC2C1(C)C(O)=C1C(=O)C(C)N(C)C1=O (centres unmarked) [compound 2, Colposetin B]
Mus musculus, L929, 120 h, read-out: IC50
  IC50: 57.5 µM

## CC1=CC2CC(C)CCC2C2(C)C(=O)OC(C(=O)O)C(C)C12 (centres unmarked) [compound 3, Colposetin C]
  IC50: not active

## CC(C=CCC(C)CCC=C(C)C(=O)C1=C(O)C(C)N(C)C1=O)=CC(C)C(O)C(=O)O (centres unmarked) [compound 4, Colpomenoic acid A]
  IC50: not active

## CC(C=CCC(C)C=CC=C(C)C(=O)C1=C(O)C(C)N(C)C1=O)=CC(C)C(O)C(=O)O (centres unmarked) [compound 5, Colpomenoic acid B]
  IC50: not active
